Experimental data reported in patent US20240216319A1, “TUMOR SUPPRESSANT AND PAIN RELIEF COMPOSITION FOR ORAL ADMINISTRATION” (priority 2022, published 2024).

Test system: bladder cancer
Conditions: bladder cancer subject on chemotherapy

C=C(C)[C@H]1CC=C(C)CC1 [d-limonene]
reduction of tumor size at subsequent surgical procedure (earlier tumors 3 cm to 5 cm, then millimeter-sized): about 10 foled | tumor morphology at subsequent surgical procedure (tumors still present): ill-defined and amorphous
